Laboratory results: US20200377459A1, “CHARGED ION CHANNEL BLOCKERS AND METHODS FOR USE” (President and Fellows of Harvard College, priority 2015, published 2020)

Test system: ATF3 expression in dorsal root ganglion
Test: ATF3 immunofluorescence in dorsal root ganglion (neurotoxicity)
Format: in vivo
Settings: mice, hindpaw injection CFA+NEE 1%, 20 μl, 8 weeks earlier
Protocol: Representative picture of ATF3 (dark shading, FIGS. 4A-4C) expression in mice dorsal root ganglion slice exposed 8 weeks earlier to an acute hindpaw injection of CFA+N-ethyl-etidocaine (Compound 21) (1%, 20 μl).
Upon harvesting, the dorsal root ganglia were fixed overnight in 4% para-formaldehyde, washed in PBS and cryoprotected by sequential sucrose immersion (PBS 10-30% sucrose, Overnight). Ganglia were mounted in O.C.T. (Tissue-tek), and serially cut in 20 μm coronal sections with a cryostat. The sections were thaw-mounted on Fisherbrand superfrost microscopy slides and kept at −80° C. On the day of the experiment, sections were thawed at room temperature for 10 min. Sections were washed in PBS for 5 min, blocked for 1 h at room temperature (PBS, 0.1% Triton X-100, 5% BSA) and exposed to the primary antibodies (Overnight, 4° C.), namely rabbit anti-mouse ATF3 (Sigma, # HPA001562). Sections were then washed three times in PBS (5 min), exposed to the secondary antibodies and DAPI (1:2000. Sigma, # D9542) (2 h, dark), washed, coverslipped with Vectashield (Vector Labs) and observed under confocal microscope ([…], LSM-710).
To evaluate if such toxicity occurred with NEE (Compound 21), mice were injected with a combination of CFA+NEE (1%) 8 weeks prior to DRG extraction.

## CCC[N+](CC)(CC)C(CC)C(=O)Nc1c(C)cccc1C (centres unmarked) [Compound 21, N-ethyl etidocaine]
  neurotoxicity: ATF3 expression in DRG: does not induce neurotoxicity
Listed as NEE
  neurotoxicity: ATF3 expression in DRG: No ATF3 expression was observed
